Reference: paper PMC7123778 (ACS infectious diseases, 2019)

Columns and labels:
[1] = tested on: H. pylori G27; conditions: H. pylori G27, liquid media; cited from earlier work
[2] = cited from earlier work
[3] = target: T1, rat liver TrxR (Rattus norvegicus, UniProt O89049); assay: TrxR inhibition assay; type: biochemical; conditions: purified rat liver TrxR, DTNB, ΔA412 after 10 minutes
T1 sequence (O89049 1-499): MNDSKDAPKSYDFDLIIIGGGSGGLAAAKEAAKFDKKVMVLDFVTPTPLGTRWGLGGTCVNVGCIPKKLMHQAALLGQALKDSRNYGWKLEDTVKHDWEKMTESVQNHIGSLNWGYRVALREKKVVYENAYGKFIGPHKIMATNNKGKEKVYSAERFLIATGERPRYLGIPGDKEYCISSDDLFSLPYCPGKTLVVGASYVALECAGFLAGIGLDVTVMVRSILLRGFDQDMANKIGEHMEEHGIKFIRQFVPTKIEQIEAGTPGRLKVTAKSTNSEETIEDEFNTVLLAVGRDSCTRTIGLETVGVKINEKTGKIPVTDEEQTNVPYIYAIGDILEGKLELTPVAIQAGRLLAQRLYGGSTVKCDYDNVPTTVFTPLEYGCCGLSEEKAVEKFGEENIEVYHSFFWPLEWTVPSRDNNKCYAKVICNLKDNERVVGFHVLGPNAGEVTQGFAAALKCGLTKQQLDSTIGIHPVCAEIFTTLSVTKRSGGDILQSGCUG

[4] = tested on: free thiols in H. pylori; assay: Free thiol depletion assay; type: cell-based, Helicobacter pylori; conditions: H. pylori treated with 5.0 μM for four hours

Row | SMILES | previously reported MIC [1] [µM] | logP [2] | half maximal inhibitory concentration (IC50) of TrxR [3] | free thiol concentration in comparison to untreated samples [4]
1 | CC(=O)OC[C@H]1O[C@@H]([S-])[C@H](OC(C)=O)[C@@H](OC(C)=O)[C@@H]1OC(C)=O.CCP(CC)CC.[Au+] [Compound 1, auranofin] | 1.2 | 0.56 | – | –
2 | CC(=O)NC1C([S][Au][PH](C)(C)C)OC(CO)C(O)C1O (centres unmarked) [Compound 6] | – | −2.03 | inhibited TrxR most effectively | –
3 | CC1(C)S[C@@H]2[C@H](NC(=O)[C@H](N)c3ccc(O)cc3)C(=O)N2[C@H]1C(=O)O [amoxicillin] | – | – | – | no differences in free thiol concentrations
